Activity calls are given as the source filed them. No cut-off for these calls is given here. Peptide text beside a SMILES is read from it. * marks the point of attachment. X6 = CC[C@H](C)[C@H](N*)C(=O)NS(=O)(=O)OC[C@H]1O[C@@H](n2cnc3c([N+](=O)[O-])cccc32)[C@H](O)[C@@H]1O; X7 = CC[C@H](C)[C@H](N*)C(=O)NS(=O)(=O)OC[C@H]1O[C@@H](n2cnc3c(=O)[nH]c(N)nc32)[C@H](O)[C@@H]1O; X3 = CC[C@H](C)[C@H](N*)C(=O)NS(=O)(=O)OC[C@H]1O[C@@H](n2ccc(=O)[nH]c2=O)[C@H](O)[C@@H]1O; X1 = CC[C@H](C)[C@H](N*)C(=O)NS(=O)(=O)OC[C@H]1O[C@@H](n2cnc3c(N)cccc32)[C@H](O)[C@@H]1O; X2 = CC[C@H](C)[C@H](N*)C(=O)NS(=O)(=O)OC[C@H]1O[C@@H](n2cnc3c(N)ncnc32)[C@H](O)[C@@H]1O; X4 = CC[C@H](C)[C@H](N*)C(=O)NS(=O)(=O)OC[C@H]1O[C@@H](n2cnc3c(O)ncnc32)[C@H](O)[C@@H]1O; X5 = CC[C@H](C)[C@H](N*)C(=O)NS(=O)(=O)OC[C@H]1O[C@@H](n2ccc(N)nc2=O)[C@H](O)[C@@H]1O; For = O=C*
Assays:
Escherichia coli [1] = assay: Antibacterial activity against wild type Escherichia coli Ara-Yej (BW39758) assessed as growth inhibition in Luria broth at 10 to 60 uM after 8 hrs by broth dilution test; type: functional, organism-based
Escherichia coli [2] = assay: Antibacterial activity against wild type Escherichia coli assessed as growth inhibition in Luria broth at 5 mM after 8 to 18 hrs by broth dilution test; type: functional, organism-based
Escherichia coli [3] = assay: Antibacterial activity against wild type Escherichia coli assessed as growth inhibition in Luria broth at 5 mM after 8 to 18 hrs by disc diffusion method; type: functional, organism-based
[4] = target: Isoleucine--tRNA ligase (Escherichia coli K-12) (UniProt P00956); assay: Inhibition of Isoleucine-tRNA synthetase in wild type Escherichia coli S30 cell extract assessed as inhibition of [C14]isoleucine incorporation in tRNA under in vitro aminoacylation conditions at 3.13 uM by liquid scintillation counting
Sequence of Isoleucine--tRNA ligase (Escherichia coli K-12) (P00956 whole entry): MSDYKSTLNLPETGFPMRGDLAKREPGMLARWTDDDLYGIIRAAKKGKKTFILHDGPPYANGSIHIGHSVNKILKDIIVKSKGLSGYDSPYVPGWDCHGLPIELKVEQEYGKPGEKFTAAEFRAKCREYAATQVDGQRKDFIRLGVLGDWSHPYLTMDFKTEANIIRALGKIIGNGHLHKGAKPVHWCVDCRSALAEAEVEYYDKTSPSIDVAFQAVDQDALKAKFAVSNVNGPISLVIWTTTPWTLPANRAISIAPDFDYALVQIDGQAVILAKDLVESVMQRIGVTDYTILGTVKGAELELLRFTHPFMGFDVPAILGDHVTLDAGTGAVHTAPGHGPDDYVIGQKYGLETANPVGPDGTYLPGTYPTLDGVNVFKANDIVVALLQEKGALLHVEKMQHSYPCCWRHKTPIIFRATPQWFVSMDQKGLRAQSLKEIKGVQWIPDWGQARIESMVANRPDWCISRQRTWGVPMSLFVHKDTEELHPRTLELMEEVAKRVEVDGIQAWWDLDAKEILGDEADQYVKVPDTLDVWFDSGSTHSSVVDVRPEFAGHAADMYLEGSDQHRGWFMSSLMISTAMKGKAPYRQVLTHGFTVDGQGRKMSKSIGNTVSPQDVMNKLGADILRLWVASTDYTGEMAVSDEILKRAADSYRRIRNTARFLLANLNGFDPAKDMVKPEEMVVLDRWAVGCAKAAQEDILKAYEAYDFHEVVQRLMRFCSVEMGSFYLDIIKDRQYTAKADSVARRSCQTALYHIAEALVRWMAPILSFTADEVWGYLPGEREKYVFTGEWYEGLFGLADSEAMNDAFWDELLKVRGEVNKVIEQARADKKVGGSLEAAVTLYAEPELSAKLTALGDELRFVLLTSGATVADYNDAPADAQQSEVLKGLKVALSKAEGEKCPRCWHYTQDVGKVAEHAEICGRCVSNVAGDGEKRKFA

| SMILES | growth inhibition (GI) (Escherichia coli [1]) | growth inhibition (GI) (Escherichia coli [2]) | growth inhibition (GI) (Escherichia coli [3]) | inhibition [4] |
| --- | --- | --- | --- | --- |
| CC[C@H](C)[C@H](NC(=O)[C@H](C)NC(=O)[C@H](CC(N)=O)NC(=O)CNC(=O)[C@@H](NC(=O)[C@H](CCCNC(=N)N)NC(=O)[C@H](CCSC)NC=O)[C@@H](C)O)C(=O)NS(=O)(=O)OC[C@H]1O[C@@H](n2ccc(=O)[nH]c2=O)[C@H](O)[C@@H]1O (For-MRTGNA-X3) | inactive | inactive |  |  |
| CC[C@H](C)[C@H](NC(=O)[C@H](C)NC(=O)[C@H](CC(N)=O)NC(=O)CNC(=O)[C@@H](NC(=O)[C@H](CCCNC(=N)N)NC(=O)[C@H](CCSC)NC=O)[C@@H](C)O)C(=O)NS(=O)(=O)OC[C@H]1O[C@@H](n2ccc(N)nc2=O)[C@H](O)[C@@H]1O (For-MRTGNA-X5) |  | inactive |  |  |
| CC[C@H](C)[C@H](NC(=O)[C@H](C)NC(=O)[C@H](CC(N)=O)NC(=O)CNC(=O)[C@@H](NC(=O)[C@H](CCCNC(=N)N)NC(=O)[C@H](CCSC)NC=O)[C@@H](C)O)C(=O)NS(=O)(=O)OC[C@H]1O[C@@H](n2cnc3c(O)ncnc32)[C@H](O)[C@@H]1O (For-MRTGNA-X4) | Active | inactive |  |  |
| CC[C@H](C)[C@H](NC(=O)[C@H](C)NC(=O)[C@H](CC(N)=O)NC(=O)CNC(=O)[C@@H](NC(=O)[C@H](CCCNC(=N)N)NC(=O)[C@H](CCSC)NC=O)[C@@H](C)O)C(=O)NS(=O)(=O)OC[C@H]1O[C@@H](n2cnc3c([N+](=O)[O-])cccc32)[C@H](O)[C@@H]1O (For-MRTGNA-X6) |  | inactive |  |  |
| CC[C@H](C)[C@H](N)C(=O)NS(=O)(=O)OC[C@H]1O[C@@H](n2ccc(=O)[nH]c2=O)[C@H](O)[C@@H]1O |  |  | inactive | Active |
| CC[C@H](C)[C@H](N)C(=O)NS(=O)(=O)OC[C@H]1O[C@@H](n2cnc3c(N)ncnc32)[C@H](O)[C@@H]1O |  |  | inactive | Active |
| CC[C@H](C)[C@H](N)C(=O)NS(=O)(=O)OC[C@H]1O[C@@H](n2cnc3c(O)ncnc32)[C@H](O)[C@@H]1O |  |  | inactive | Active |
| CC[C@H](C)[C@H](N)C(=O)NS(=O)(=O)OC[C@H]1O[C@@H](n2cnc3c([N+](=O)[O-])cccc32)[C@H](O)[C@@H]1O |  |  | inactive | Active |
| CC[C@H](C)[C@H](NC(=O)[C@H](C)NC(=O)[C@H](CC(N)=O)NC(=O)CNC(=O)[C@@H](NC(=O)[C@H](CCCNC(=N)N)NC(=O)[C@H](CCSC)NC=O)[C@@H](C)O)C(=O)NS(=O)(=O)OC[C@H]1O[C@@H](n2cnc3c(=O)[nH]c(N)nc32)[C@H](O)[C@@H]1O (For-MRTGNA-X7) |  | inactive |  |  |
| CC[C@H](C)[C@H](NC(=O)[C@H](C)NC(=O)[C@H](CC(N)=O)NC(=O)CNC(=O)[C@@H](NC(=O)[C@H](CCCNC(=N)N)NC(=O)[C@H](CCSC)NC=O)[C@@H](C)O)C(=O)NS(=O)(=O)OC[C@H]1O[C@@H](n2cnc3c(N)ncnc32)[C@H](O)[C@@H]1O (For-MRTGNA-X2) | Active | inactive |  |  |
| CC[C@H](C)[C@H](N)C(=O)NS(=O)(=O)OC[C@H]1O[C@@H](n2ccc(N)nc2=O)[C@H](O)[C@@H]1O |  |  | inactive | Active |
| CC[C@H](C)[C@H](N)C(=O)NS(=O)(=O)OC[C@H]1O[C@@H](n2cnc3c(=O)[nH]c(N)nc32)[C@H](O)[C@@H]1O |  |  | inactive | Active |
| CC[C@H](C)[C@H](NC(=O)[C@H](C)NC(=O)[C@H](CC(N)=O)NC(=O)CNC(=O)[C@@H](NC(=O)[C@H](CCCNC(=N)N)NC(=O)[C@H](CCSC)NC=O)[C@@H](C)O)C(=O)NS(=O)(=O)OC[C@H]1O[C@@H](n2cnc3c(N)cccc32)[C@H](O)[C@@H]1O (For-MRTGNA-X1) | Active | inactive |  |  |
| CC[C@H](C)[C@H](N)C(=O)NS(=O)(=O)OC[C@H]1O[C@@H](n2cnc3c(N)cccc32)[C@H](O)[C@@H]1O |  |  | inactive | Active |

Source: ChEMBL document CHEMBL3259721, “Base substituted 5'-O-(N-isoleucyl)sulfamoyl nucleoside analogues as potential antibacterial agents” (Bioorg Med Chem, 2014)
